Active and inactive are the calls of the source.
How the values were obtained:
[1] = growth suppression of PTEN-null colon cells, dose response, cell-based, HCT116 PTEN knockout (AID 1047); assay type: functional;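 note: HCT116 colon tumor cells with PTEN knocked out; cells exposed to compound for 60 hours before readout; potency for loss of cell viability measured by luminescence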
[2] = biological target: T1, Ubiquitin-conjugating enzyme E2 N (Homo sapiens, UniProt P61088); assay type: functional;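 note: Dose-response confirmation in a TR-FRET assay detecting UBC13-driven polyubiquitin chain formation, inhibition measured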
T1 sequence (P61088 whole entry): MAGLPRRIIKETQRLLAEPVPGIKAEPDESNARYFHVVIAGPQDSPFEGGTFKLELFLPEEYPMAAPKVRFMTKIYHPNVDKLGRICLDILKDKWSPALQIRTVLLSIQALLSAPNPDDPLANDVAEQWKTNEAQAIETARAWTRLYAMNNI

[3] = growth suppression of beta-catenin-knockout colon cells, dose response, cell-based, HCT116, human colon tumor (AID 1045); assay type: functional;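 note: HCT116 colon tumor cells with beta catenin knocked out; cells exposed to compound for 60 hours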
[4] = control 3'UTR Renilla luciferase suppression, dose response, counter-screen for Shn3 inhibitor project, cell-based, Clone20-Shn3RL, cherry-picked (AID 624133); assay type: functional
[5] = biological target: T2, Zinc finger protein mex-5 (Caenorhabditis elegans, UniProt Q9XUB2); test: MEX-5/TCR-2 RNA interaction inhibitors, dose response, biochemical, C. elegans, fluorescence polarization (AID 1960)
T2 sequence (Q9XUB2 whole entry): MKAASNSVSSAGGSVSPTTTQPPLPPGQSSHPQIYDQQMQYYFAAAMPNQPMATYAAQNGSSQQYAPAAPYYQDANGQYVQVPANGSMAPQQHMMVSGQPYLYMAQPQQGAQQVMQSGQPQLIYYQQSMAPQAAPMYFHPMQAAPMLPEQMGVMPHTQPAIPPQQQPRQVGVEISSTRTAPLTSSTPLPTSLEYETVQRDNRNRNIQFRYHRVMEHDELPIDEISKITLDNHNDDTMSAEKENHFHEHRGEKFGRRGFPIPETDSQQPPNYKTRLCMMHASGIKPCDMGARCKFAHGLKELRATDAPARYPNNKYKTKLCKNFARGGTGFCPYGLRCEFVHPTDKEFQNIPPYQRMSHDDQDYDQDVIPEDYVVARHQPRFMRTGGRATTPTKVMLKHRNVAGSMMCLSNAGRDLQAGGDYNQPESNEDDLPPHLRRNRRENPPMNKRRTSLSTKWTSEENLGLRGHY

[6] = biological target: T3, Polyadenylate-binding protein 1 (Homo sapiens, UniProt P11940); test: PABP1 MLLE–PAM2 interaction inhibitors, dose response, miRNA deadenylation inhibitor project, biochemical, fluorescence polarization, Cy5-PAM2 peptide, secondary (AID 602260); assay type: functional; conditions: read-out: IC50_Mean
T3 sequence (P11940 whole entry, the tested form may be a part): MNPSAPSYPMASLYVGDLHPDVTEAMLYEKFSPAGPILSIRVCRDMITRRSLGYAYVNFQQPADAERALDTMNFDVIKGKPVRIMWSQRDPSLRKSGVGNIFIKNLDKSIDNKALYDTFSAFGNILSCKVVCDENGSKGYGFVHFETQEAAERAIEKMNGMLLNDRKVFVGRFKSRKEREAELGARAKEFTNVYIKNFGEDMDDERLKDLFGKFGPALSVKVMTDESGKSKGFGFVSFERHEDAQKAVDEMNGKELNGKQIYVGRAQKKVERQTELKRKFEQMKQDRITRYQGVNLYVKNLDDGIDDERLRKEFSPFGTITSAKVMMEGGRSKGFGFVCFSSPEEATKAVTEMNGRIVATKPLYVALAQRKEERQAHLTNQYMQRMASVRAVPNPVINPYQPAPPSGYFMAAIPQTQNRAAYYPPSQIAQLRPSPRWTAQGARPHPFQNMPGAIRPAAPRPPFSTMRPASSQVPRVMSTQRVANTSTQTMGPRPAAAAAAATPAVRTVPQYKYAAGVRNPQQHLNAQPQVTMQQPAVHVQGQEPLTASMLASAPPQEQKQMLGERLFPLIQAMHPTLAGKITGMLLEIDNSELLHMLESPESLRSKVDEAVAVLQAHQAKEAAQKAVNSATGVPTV

[7] = biological target: T4, RNA-binding protein pos-1 (Caenorhabditis elegans, UniProt G5EF15); test: inhibitors of POS-1/mex-3 RNA binding, dose response, biochemical, fluorescence polarization (AID 1964);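 note: purified POS-1 fused to maltose binding protein made in E. coli; potency of compounds blocking POS-1 binding to fluorescent RNA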
T4 sequence (G5EF15 whole entry): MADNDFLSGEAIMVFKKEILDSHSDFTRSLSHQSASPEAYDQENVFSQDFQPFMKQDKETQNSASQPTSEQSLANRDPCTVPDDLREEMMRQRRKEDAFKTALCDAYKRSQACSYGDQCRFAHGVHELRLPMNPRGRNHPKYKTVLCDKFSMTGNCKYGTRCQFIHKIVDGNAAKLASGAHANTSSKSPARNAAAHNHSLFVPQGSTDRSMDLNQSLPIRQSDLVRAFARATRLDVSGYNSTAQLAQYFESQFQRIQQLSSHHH

[8] = biological target: T3, Polyadenylate-binding protein 1; test: PABP1 MLLE–PAM2 binding inhibitor potency, dose response, biochemical, fluorescence polarization, FITC-PAM2 peptide (AID 602259); assay type: functional; conditions: read-out: IC50_Mean
[9] = biological target: Genome polyprotein (dengue virus type 2, UniProt P29990); test: Dengue-2 NS5 methyltransferase inhibitors, primary screen, biochemical, confirmation dose response (AID 588689); assay type: functional
Sequence of Genome polyprotein (P29990 2492-3391 limits assumed): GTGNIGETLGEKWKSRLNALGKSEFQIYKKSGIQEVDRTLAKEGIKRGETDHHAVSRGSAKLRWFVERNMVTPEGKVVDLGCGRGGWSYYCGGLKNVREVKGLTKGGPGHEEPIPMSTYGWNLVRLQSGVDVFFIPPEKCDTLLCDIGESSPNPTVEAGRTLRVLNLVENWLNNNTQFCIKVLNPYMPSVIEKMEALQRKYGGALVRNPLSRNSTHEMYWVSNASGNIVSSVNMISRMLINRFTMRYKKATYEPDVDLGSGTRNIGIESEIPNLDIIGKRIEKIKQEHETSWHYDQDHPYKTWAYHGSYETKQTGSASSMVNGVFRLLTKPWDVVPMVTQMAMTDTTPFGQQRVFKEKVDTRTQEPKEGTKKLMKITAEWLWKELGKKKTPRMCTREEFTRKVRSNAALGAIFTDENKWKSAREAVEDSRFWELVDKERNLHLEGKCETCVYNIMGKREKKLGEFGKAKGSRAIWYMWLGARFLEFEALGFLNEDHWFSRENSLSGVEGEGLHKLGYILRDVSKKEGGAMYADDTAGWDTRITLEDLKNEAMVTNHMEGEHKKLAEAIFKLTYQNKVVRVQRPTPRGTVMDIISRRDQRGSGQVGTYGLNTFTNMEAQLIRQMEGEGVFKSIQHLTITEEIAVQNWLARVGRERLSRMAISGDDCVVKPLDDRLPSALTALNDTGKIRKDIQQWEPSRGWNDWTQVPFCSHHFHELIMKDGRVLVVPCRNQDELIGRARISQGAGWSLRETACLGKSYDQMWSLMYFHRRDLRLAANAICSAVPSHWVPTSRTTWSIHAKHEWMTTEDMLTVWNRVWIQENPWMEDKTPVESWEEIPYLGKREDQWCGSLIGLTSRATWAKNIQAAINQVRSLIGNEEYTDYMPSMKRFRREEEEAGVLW

[10] = cytotoxicity toward DRD oncogenic fibroblasts, dose response, cell-based, non-viral oncogenic, luminescence (AID 1934); assay type: functional; conditions: Homo sapiens
[11] = tested on: Streptococcus sp. 'group A'; test: growth inhibition of control SK(-) GAS strain, dose response, counter-screen for streptokinase expression inhibitor project, luminescence, kanamycin, BacTiterGlo, confirmation (AID 1900); assay type: functional, organism-based
[12] = tested on: Streptococcus; test: Group A Streptococcus viability loss, dose response, counter-screen for streptokinase expression inhibitor project, luminescence, BacTiterGlo (AID 1915); assay type: functional, organism-based;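 note: potency for reduction of bacterial viability or growth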
[13] = inhibitors of intracellular T. cruzi replication, confirmation, NIH3T3 host cells, beta-gal luminescence (AID 2044); assay type: functional, cell-based;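 note: intracellular parasites grown in NIH/3T3 mouse fibroblasts as host cells; luminescent beta-galactosidase reporter signal from transgenic T. cruzi replicating inside host cells; inhibitors lower the luminescence signal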
[14] = tested on: BJ; test: cells; assay type: functional, cell-based; conditions: Homo sapiens
[15] = cytotoxicity toward NIH3T3 fibroblasts, dose response, counter-screen, cell-based, ATP luminescence, mouse fibroblasts (AID 2010); assay type: functional;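 note: cells exposed to compound for about 90 hours before reading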
[16] = tested on: BJ; test: cytotoxicity toward BJ-TERT fibroblasts, dose response, cell-based, RAS-independent, luminescence (AID 1933); assay type: functional; conditions: Homo sapiens
[17] = biological target: T5, Streptokinase A (Streptococcus pyogenes serotype M1, UniProt P10520); test: S. pyogenes streptokinase expression inhibitors, potency, dose response, plasminogen activation absorbance, OD405 (AID 1914); assay type: functional, Streptococcus pyogenes M1 GAS;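 note: secreted streptokinase activity via plasminogen activation per viability signal from cell pellet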
T5 sequence (P10520 whole entry): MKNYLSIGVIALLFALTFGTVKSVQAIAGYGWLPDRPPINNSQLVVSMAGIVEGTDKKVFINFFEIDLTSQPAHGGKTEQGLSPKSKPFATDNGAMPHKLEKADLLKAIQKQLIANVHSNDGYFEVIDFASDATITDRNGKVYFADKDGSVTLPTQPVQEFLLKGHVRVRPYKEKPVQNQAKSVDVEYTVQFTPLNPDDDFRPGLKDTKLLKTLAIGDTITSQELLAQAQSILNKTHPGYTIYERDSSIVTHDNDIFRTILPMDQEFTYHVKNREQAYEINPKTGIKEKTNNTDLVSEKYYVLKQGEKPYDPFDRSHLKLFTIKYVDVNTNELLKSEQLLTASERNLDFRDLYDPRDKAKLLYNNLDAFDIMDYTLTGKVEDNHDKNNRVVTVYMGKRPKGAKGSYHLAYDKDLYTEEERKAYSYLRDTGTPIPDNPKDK

[18] = tested on: BJ; test: cytotoxicity toward BJ-TERT-LT-ST fibroblasts, dose response, cell-based, RAS-independent, luminescence (AID 1935); assay type: functional; conditions: Homo sapiens;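 note: BJ fibroblasts immortalized with TERT plus LT and ST oncogenes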
[19] = biological target: FAD-linked sulfhydryl oxidase ALR (Homo sapiens, UniProt P55789); test: inhibitors of human ALR sulfhydryl oxidase, dose response, biochemical, H2O2 detection, luminescence, cherry-pick (AID 493248)
Sequence of FAD-linked sulfhydryl oxidase ALR (P55789 whole entry): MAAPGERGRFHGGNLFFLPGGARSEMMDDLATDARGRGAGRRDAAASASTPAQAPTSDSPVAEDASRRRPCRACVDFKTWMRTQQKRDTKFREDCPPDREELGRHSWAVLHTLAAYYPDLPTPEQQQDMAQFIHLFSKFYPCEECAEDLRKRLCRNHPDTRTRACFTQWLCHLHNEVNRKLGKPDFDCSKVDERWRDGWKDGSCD

[20] = biological target: Cytochrome P450 2C9 (Homo sapiens, UniProt P11712)
Sequence of Cytochrome P450 2C9 (P11712 whole entry): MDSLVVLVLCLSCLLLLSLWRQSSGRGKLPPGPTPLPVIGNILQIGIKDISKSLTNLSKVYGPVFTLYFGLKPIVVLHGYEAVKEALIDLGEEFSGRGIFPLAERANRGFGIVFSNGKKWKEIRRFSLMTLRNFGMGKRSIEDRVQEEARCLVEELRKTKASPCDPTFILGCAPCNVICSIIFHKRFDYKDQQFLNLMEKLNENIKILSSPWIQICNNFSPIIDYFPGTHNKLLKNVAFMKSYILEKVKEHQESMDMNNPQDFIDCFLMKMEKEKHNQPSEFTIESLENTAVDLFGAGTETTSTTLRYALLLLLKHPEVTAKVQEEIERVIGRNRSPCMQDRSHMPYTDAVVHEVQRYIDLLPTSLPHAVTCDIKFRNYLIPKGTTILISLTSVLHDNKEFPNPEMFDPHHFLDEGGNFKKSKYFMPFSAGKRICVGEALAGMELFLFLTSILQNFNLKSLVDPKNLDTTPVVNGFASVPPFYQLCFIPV

[21] = biological target: Cytochrome P450 3A4 (Homo sapiens, UniProt P08684);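 note: CYP3A4 tested as one member of a cytochrome P450 panel screen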
Sequence of Cytochrome P450 3A4 (P08684 whole entry): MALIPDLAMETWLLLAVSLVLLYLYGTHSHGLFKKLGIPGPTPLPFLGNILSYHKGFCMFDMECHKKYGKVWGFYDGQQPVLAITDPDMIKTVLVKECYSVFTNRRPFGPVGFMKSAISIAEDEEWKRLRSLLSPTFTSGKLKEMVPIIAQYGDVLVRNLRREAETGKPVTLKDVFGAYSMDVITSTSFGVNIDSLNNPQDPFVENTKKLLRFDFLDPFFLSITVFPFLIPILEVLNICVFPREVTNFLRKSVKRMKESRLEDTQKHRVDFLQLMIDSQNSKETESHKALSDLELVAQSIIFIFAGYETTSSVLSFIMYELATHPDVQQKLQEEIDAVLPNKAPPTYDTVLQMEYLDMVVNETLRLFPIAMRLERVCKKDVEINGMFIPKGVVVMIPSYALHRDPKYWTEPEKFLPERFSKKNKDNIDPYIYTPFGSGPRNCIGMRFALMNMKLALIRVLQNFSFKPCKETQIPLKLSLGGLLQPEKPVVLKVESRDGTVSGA

[22] = intracellular Trypanosoma cruzi inhibitors in host cells – cell-based, plate reader, cherry-pick samples, set 3, dose response (AID 651818); assay type: functional;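 note: compounds incubated with infected cells for about four days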

CN1CCN(c2ccc(S(=O)(=O)N3CCCCC3)cc2NC(=O)c2ccc3ccccc3c2)CC1
EC50 [1]: 16 µM (active) | IC50 [2]: > 20 µM (inactive) | EC50 [3]: 17.8 µM (active)

Nc1cc(O)nc(SCC(=O)Nc2cccc([N+](=O)[O-])c2)n1
AC50 [4]: 27.7 µM (active)

O=C(NN=Cc1sc(=O)[n-]c1-[n+]1ccc(-c2ccncc2)cc1)c1ccccc1O
EC50 [5]: 10.7 µM (active) | IC50 [6]: 33.3 µM (inactive) | EC50 [7]: 11.9 µM (active) | IC50 [8]: 42.7 µM (inactive)

CCC(c1nnnn1Cc1ccc(F)cc1)N(CCCO)Cc1cc2cc3c(cc2nc1O)OCO3 (centres undefined)
IC50 [6]: > 66 µM (inactive) | IC50 [8]: > 66 µM (inactive)

COc1ccc(/C=C2/SC(=S)N(NS(=O)(=O)c3ccc(C)cc3)C2=O)cc1
IC50 [9]: 56.9 µM (active)

COC(=O)c1c(NC(=O)COc2ccc(Cl)cc2)sc2c1CC(C)(C)NC2(C)C
EC50 [10]: 5.85 µM (active) | EC50 [11]: 11.6 µM (active) | EC50 [12]: > 150 µM (not active) | EC50 [13]: 1.54 µM (active) | EC50 [14]: 11.7 µM (active) | EC50 [15]: 10.4 µM (active) | EC50 [16]: 4.44 µM (active) | EC50 [17]: 23.7 µM (active) | EC50 [18]: 5.75 µM (inconclusive)

Cn1cccc1/C=N/n1c(S)nnc1-c1ccc(Cl)cc1Cl
AC50 [19]: 1.07 µM (active)

O=C(C1CCCC1)N1CCN=C1SCc1cccc([N+](=O)[O-])c1
AC50 [19]: 0.032 µM (active)

c1ccc2[nH]c(SCc3cn4cccnc4n3)nc2c1
AC50 [19]: 0.194 µM (active)

CSCC[C@H](NC(=O)N1CCn2c1nc1ccccc12)C(=O)N1CCCCC1
AC50 [19]: 4.31 µM (active)

O=C(NC(=S)Nc1ccc(C(=O)N2CCOCC2)cc1)c1ccc([N+](=O)[O-])cc1
AC50 [20]: 0.891 µM (inconclusive) | AC50 [21]: 1.41 µM (inconclusive) | IC50 [6]: > 66 µM (inactive) | IC50 [8]: > 66 µM (inactive)

C[C@H](CO)N1C[C@H](C)[C@@H](CN(C)Cc2ccc(C(=O)Nc3ccccc3N)cc2)Oc2c(NC(=O)C3CC3)cccc2C1=O
AC50 [22]: 1.13 µM (active)

— ChEMBL document CHEMBL1201862, “PubChem BioAssay data set” (2004)
